Consider 13 compounds from ChEMBL document CHEMBL3272121, “Hypolipidemic analogues of ethyl 4-benzyloxybenzoate” (J Med Chem, 1977).

The subject of data set [1] is Rattus norvegicus. Nature of the data set: Toxicity in CFY Sprague-Dawley rat assessed as body weight gain at 0.2% dietary level administered for 7 days relative to control. The format is organism-based. The following applies: in vivo, po, 168 h.
Data set [2] has as its system Rattus norvegicus. Briefly: Hypolipidemic activity in CFY Sprague-Dawley rat assessed as liver lipid per gm of liver at 0.25% dietary level administered for 7 days relative to control. The format is functional.
Data set [3] relates to Rattus norvegicus. Briefly: Toxicity in CFY Sprague-Dawley rat assessed as relative liver weight at 0.25% dietary level administered for 7 days relative to control. Type of data set: organism-based. The following applies: in vivo, po, 168 h.
The subject of data set [4] is Rattus norvegicus. Briefly: Hypolipidemic activity in CFY Sprague-Dawley rat assessed as serum triglyceride level at 0.25% dietary level administered for 7 days relative to control. Type of data set: functional.
Data set [5] concerns Rattus norvegicus. Briefly: Toxicity in CFY Sprague-Dawley rat assessed as body weight gain at 1% dietary level administered for 7 days relative to control. The following applies: in vivo, po, 168 h. The format is organism-based.
Data set [6] deals with Rattus norvegicus. Nature of the data set: Hypolipidemic activity in CFY Sprague-Dawley rat assessed as serum cholesterol level at 0.25% dietary level administered for 7 days relative to control. Type of data set: functional.
For data set [7], the system named is Liver. Briefly: Inhibition of fatty acid biosynthesis from [1-14C]acetate in rat liver slices at 5 X 10^-4 M relative to control. Type of data set: functional.
Data set [8] deals with Rattus norvegicus. Nature of the data set: Hypolipidemic activity in CFY Sprague-Dawley rat assessed as liver lipid per gm of liver at 0.2% dietary level administered for 7 days relative to control. Type of data set: functional.
The subject of data set [9] is Rattus norvegicus. Nature of the data set: Hypolipidemic activity in CFY Sprague-Dawley rat assessed as serum triglyceride level at 0.2% dietary level administered for 7 days relative to control. The format is functional.
For data set [10], the system named is Rattus norvegicus. Briefly: Toxicity in CFY Sprague-Dawley rat assessed as body weight gain at 0.25% dietary level administered for 7 days relative to control. Type of data set: organism-based. The following applies: in vivo, po, 168 h.
In data set [11] the test system is Rattus norvegicus. Briefly: Toxicity in CFY Sprague-Dawley rat assessed as relative liver weight at 0.2% dietary level administered for 7 days relative to control. Type of data set: organism-based. The following applies: in vivo, po, 168 h.
Data set [12] deals with Rattus norvegicus. Briefly: Hypolipidemic activity in CFY Sprague-Dawley rat assessed as serum triglyceride level at 1% dietary level administered for 7 days relative to control. Type of data set: functional.
In data set [13] the test system is Liver. Nature of the data set: Inhibition of cholesterol biosynthesis from [1-14C]acetate in rat liver slices at […] relative to control. Type of data set: functional.
Data set [14] has as its system Rattus norvegicus. Nature of the data set: Toxicity in CFY Sprague-Dawley rat assessed as relative liver weight at 1% dietary level administered for 7 days relative to control. Type of data set: organism-based. The following applies: in vivo, po, 168 h.
Data set [15] relates to Rattus norvegicus. Briefly: Hypolipidemic activity in CFY Sprague-Dawley rat assessed as serum cholesterol level at 1% dietary level administered for 7 days relative to control. Type of data set: functional.
The subject of data set [16] is Rattus norvegicus. Nature of the data set: Hypolipidemic activity in CFY Sprague-Dawley rat assessed as liver lipid per gm of liver at 1% dietary level administered for 7 days relative to control. Type of data set: functional.
Data set [17] relates to Rattus norvegicus. Briefly: Hypolipidemic activity in CFY Sprague-Dawley rat assessed as serum cholesterol level at 0.2% dietary level administered for 7 days relative to control. The format is functional.
For data set [18], the system named is Rattus norvegicus. Briefly: Hypolipidemic activity in CFY Sprague-Dawley rat assessed as serum triglyceride level at 0.1% dietary level administered for 7 days relative to control. The format is functional.
In data set [19] the test system is Rattus norvegicus. Nature of the data set: Toxicity in CFY Sprague-Dawley rat assessed as body weight gain at 0.1% dietary level administered for 7 days relative to control. Type of data set: organism-based. The following applies: in vivo, po, 168 h.
In data set [20] the test system is Rattus norvegicus. Nature of the data set: Hypolipidemic activity in CFY Sprague-Dawley rat assessed as liver lipid per gm of liver at 0.1% dietary level administered for 7 days relative to control. The format is functional.
The subject of data set [21] is Rattus norvegicus. Briefly: Toxicity in CFY Sprague-Dawley rat assessed as relative liver weight at 0.1% dietary level administered for 7 days relative to control. The format is organism-based. The following applies: in vivo, po, 168 h.
The test system of data set [22] is Rattus norvegicus. Briefly: Hypolipidemic activity in CFY Sprague-Dawley rat assessed as serum cholesterol level at 0.1% dietary level administered for 7 days relative to control. Type of data set: functional.
The subject of data set [23] is Liver. Briefly: Inhibition of cholesterol biosynthesis from [1-14C]acetate in rat liver slices at 1 X 10^-4 M relative to control. The format is functional.
Data set [24] has as its system Rattus norvegicus. Nature of the data set: Toxicity in CFY Sprague-Dawley rat assessed as body weight gain at 0.5% dietary level administered for 7 days relative to control. The following applies: in vivo, po, 168 h. The format is organism-based.
Data set [25] has as its system Rattus norvegicus. Briefly: Hypolipidemic activity in CFY Sprague-Dawley rat assessed as serum triglyceride level at 0.5% dietary level administered for 7 days relative to control. Type of data set: functional.
In data set [26] the test system is Rattus norvegicus. Nature of the data set: Hypolipidemic activity in CFY Sprague-Dawley rat assessed as liver lipid per gm of liver at 0.5% dietary level administered for 7 days relative to control. Type of data set: functional.
The test system of data set [27] is Rattus norvegicus. Nature of the data set: Hypolipidemic activity in CFY Sprague-Dawley rat assessed as serum cholesterol level at 0.5% dietary level administered for 7 days relative to control. The format is functional.
Data set [28] concerns Rattus norvegicus. Briefly: Toxicity in CFY Sprague-Dawley rat assessed as relative liver weight at 0.5% dietary level administered for 7 days relative to control. The format is organism-based. The following applies: in vivo, po, 168 h.
Data set [29] relates to Liver. Nature of the data set: Inhibition of fatty acid biosynthesis from [1-14C]acetate in rat liver slices at 1 X 10^-4 M relative to control. Type of data set: functional.
The subject of data set [30] is Liver. Nature of the data set: Inhibition of fatty acid biosynthesis from [1-14C]acetate in rat liver slices at 1 X 10^-3 M relative to control. The format is functional.
Data set [31] has as its system Liver. Briefly: Inhibition of cholesterol biosynthesis from [1-14C]acetate in rat liver slices at 1 X 10^-3 M relative to control. Type of data set: functional.

Broadly, the inhibition is the change of the read-out against control, counted positive when it falls. As for `CCOC(=O)c1ccc(OCc2ccc(C)cc2)cc1`, the Activity in data set [1] is on record as 14%; in [2], 1%; in data set [3] it was 4%; in data set [4], -54%; in data set [5], -19%; in [6], -18%. In addition, the Activity in data set [8] was -7%; in data set [9] it was -42%; in data set [10] it was -4%; in data set [11], 2%; in data set [12], -46%; in data set [14] it was 19%. Besides, the Activity in data set [15] is -13%; in data set [16] it was 3%; in data set [17] it was -17%. The inhibition at 500 µM in data set [7] and in data set [13] was 47% each time.

As to `CCOC(=O)Cc1ccc(OCc2ccc(C)cc2)cc1`, the Activity in data set [18] is -49%; in [2] it was 5%; in data set [3] it was 20%; in data set [4] it was -68%; in [6], -45%; in [19], 16%. Also, the Activity in data set [10] is given as -18%; in [20], 0%; in data set [21] it was 9%; in data set [22], -8%.

As for `CCOC(=O)c1ccc(OCc2ccc(Br)cc2)cc1`, the Activity in data set [1] is reported as 17%; in data set [2] it was 0%; in data set [3], 10%; in data set [4] it was -52%; in [5] it was -8%; in [6], -29%. Moreover, the Activity is -2% in data set [8]; -62% in data set [9]; 1% in data set [10]; 8% in [11]; -39% in [12]; 20% in [14]. The Activity in data set [15] was -24%; in [16], 4%; in data set [17], -23%. The inhibition at 500 µM was 84% in [7] and 98% in data set [13].

For `O=C(O)c1ccc(OCc2ccccc2)cc1`, the Activity in data set [1] is -13%; in data set [2], -4%; in [3], 10%; in data set [4] it was -65%; in data set [5], -62%; in data set [6], -23%. Also, the Activity in [8] is listed as 8%; in data set [9], -50%; in [10], -5%; in data set [11] it was 0%; in data set [12], -34%; in [14], 50%. The values for the Activity in data set [15], in [16] and in data set [17] were -24%, 1% and -14%, respectively. The inhibition at 500 µM in data set [7] is 65%; in data set [13] it was 92%.

Consider `CCOC(=O)c1ccc(OCc2ccc(F)cc2)cc1`, for which the Activity in data set [2] is reported as 1%; in data set [3] it was 8%; in data set [4], -48%; in data set [6] it was -31%; in data set [10], 9%. The inhibition at 500 µM was 12% in data set [7] and 86% in data set [13].

Take `CCOC(=O)c1ccc(OCc2ccccc2[N+](=O)[O-])cc1`: the Activity in data set [2] is reported as 3%; in data set [3], 12%; in data set [4], -21%; in data set [6] it was -20%; in data set [10], 8%. Also, the inhibition at 500 µM in data set [7] was found to be 69%; in data set [13] it was 82%.

With `CCCc1ccc(OCc2ccccc2)c(OC)c1`, the Activity in data set [2] is 4%; in [3], 17%; in data set [4] it was 12%; in [6], 15%; in data set [10], 0%. Besides, the inhibition at 500 µM in data set [7] is 3%; in [13] it was 34%.

For the compound `CCOC(=O)c1ccc(OCc2ccc(C)c(C)c2)cc1`, the Activity in [2] is recorded as 13%; in [3] it was 10%; in data set [4], -47%; in data set [6] it was -19%; in [10], -7%. The values for the inhibition at 500 µM in data set [7] and in data set [13] were 94% and 97%, respectively.

In the case of `CCOC(=O)c1ccc(OCc2ccccc2)cc1`, the inhibition at 100 µM is 42% in data set [23] and -7% in data set [29]. Besides, the Activity in data set [1] was -8%; in [18], -14%; in data set [2] it was 2%; in data set [3] it was 8%; in data set [4], -61%; in data set [5] it was -45%. Also, the Activity in data set [6] is listed as -17%; in data set [24], -40%; in data set [19], 6%; in data set [8] it was -3%; in data set [9] it was -67%; in data set [10], 1%. Also, the Activity is listed as 0% in [20]; -41% in data set [25]; 10% in data set [26]; 8% in [11]; -18% in data set [27]; 9% in data set [21]. In addition, the Activity is given as -29% in data set [12]; -9% in [22]; 22% in [28]; 37% in data set [14]; -20% in [15]; 9% in data set [16]. The Activity in data set [17] is -20%. The inhibition at 500 µM came to 91% in [7] and 68% in data set [13].

With `CCOC(=O)Cc1ccc(OCc2ccccc2OC)cc1`, the inhibition at 100 µM in [23] amounted to 57%; in [29], 48%. Further, the Activity is 6% in [1]; 7% in data set [2]; 4% in data set [3]; -57% in [4]; -16% in data set [5]; -24% in data set [6]. In addition, the Activity is on record as 5% in data set [8]; -64% in data set [9]; 6% in data set [10]; 8% in [11]; -53% in data set [12]; 19% in data set [14]. In addition, the Activity in [15] is given as -21%; in data set [16] it was 20%; in data set [17], -22%.

`CCOC(=O)CCc1ccc(OCc2ccc(F)cc2)cc1`: the inhibition at 100 µM was 87% in data set [23] and 82% in [29]. In addition, the Activity is 7% in [2]; -5% in data set [3]; -43% in [4]; -20% in data set [6]; 4% in [24]; -1% in [10]. For the same compound, the Activity is on record as -59% in data set [25], 8% in data set [26], -19% in data set [27] and 15% in data set [28].

Take `CCOC(=O)Cc1ccc(OCc2ccc(Cl)cc2)cc1`: the Activity in data set [2] was 8%; in data set [3], 14%; in data set [4], -91%; in data set [6], -28%; in data set [10], -10%. The figures for the inhibition at 500 µM in data set [7] and in [13] were 59% and 68%, respectively.

In the case of `CCC(C(=O)O)c1ccccc1` (stereo unspecified), the inhibition at 1000 µM came to 7% in [30] and 30% in [31].
